The values that follow come from US9701729B2, “Peptide having 5 linked CTL epitopes” (TAIHO PHARMACEUTICAL CO., LTD., priority 2013, dated 2017).

In assay [1] the test system is CTL epitope peptide specific CTL. Put plainly: Induction of epitope peptide specific CTLs in mouse model, detection by IFN-γ ELISPOT. Format: in vivo, mice (HLA-A2.1 transgenic and HLA-A24 transgenic mice). The conditions noted are these: emulsion with IFA, 100 μl weekly at base of tail, twice; inguinal lymph node cells 1 week after final administration; positive = spots significantly above negative control peptide (p<0.05). As to the method: The peptides having 5 linked epitopes were dissolved in Otsuka distilled water (Otsuka Pharmaceutical Factory Inc.) at 2 mg/ml or 4 mg/ml, and the resulting solution was filled into the B Braun Injekt syringe. After the equivalent amount of Incomplete Freund's adjuvant (IFA) was filled into another syringe, these syringes were connected to each other using a GP syringe connector, and a solution of the peptides having 5 linked epitopes was thoroughly mixed with IFA to prepare an emulsion. The emulsion was weekly administered in amounts of 100 μl each in the vicinity of base of tail of mice (HLA-A2.1 transgenic and HLA-A24 transgenic mice (Taconic)), and administrations were carried out twice in total. Inguinal lymph nodes were corrected from mice 1 week after the final administration. […] The number of IFN-γ-producing cell spots was quantified using an ELISPOT analyzer (Immunospot S6, Cellular Technology Ltd.). […]

Assay [2] concerns CTL epitope peptide specific IgG antibody. Put plainly: Measurement of CTL-epitope specific IgG antibody titer in mouse serum (peptide-immobilized beads, Bio-Plex). The format is in vivo, CBF1 mice (C57BL/6×Balb/c F1). The conditions noted are these: emulsion with IFA, 100 μl weekly, three times; serum 1 week after final administration; compared with the IFA group. As to the method: Peptides were immobilized onto xMAP Multi-Analyte COOH Microspheres (Luminex Corporation; hereafter referred to as “beads”) in the manner described below. The beads were washed with MES buffer (0.1 M MES-NaOH; pH 7.0), the supernatant was removed by centrifugation. This washing process was repeated twice and the beads were then suspended in 75 μl of MES buffer. 100 μl of CTL epitope peptide solution (1 mg/ml), and 5 μl of 10 mg/ml EDC (1-ethyl-3-(3-dimethylaminopropyl)carbodiimide hydrochloride) solution was added into beads suspension then mixed well. Thereafter, the reaction was performed at 30° C. in the dark overnight. After the removal of supernatant by centrifugation on the following day, 125 μl of 1 M Tris-HCl was added, and incubation was carried out at 30° C. in the dark for 30 minutes. After the supernatant was removed again, the beads were washed twice with wash buffer (PBS(-), 0.05% Tween 20) and were suspended in Immunoblock (DS Pharma Biomedical Co., Ltd.). […]
The CTL epitope peptide-immobilized beads diluted with Immunoblock were dispensed into wells of a 96-well filter plate. […] After the three times of plate washing with a wash buffer, 100 μl of wash buffer was added into each well to suspend beads, and the mean fluorescence intensity of PE which specifically bound to relevant beads was measured using the Bio-Plex Suspension Array System (BIO-RAD). […]

For the substance “PEP7-RR-PEP2-RR-PEP5-RR-PEP3-RR-PEP4 (QIRPIFSNRRRASLDSDPWVRRVYDYNCHVDLRRLLQAEAPRLRRDYSARWNEI) [TPV18]”, the “number of types of CTL epitope peptide specific CTLs induced” value in assay [1] is on record as “no more than two CTLs induced”.
In the case of “PEP2-RR-PEP3-RR-PEP4-RR-PEP5-RR-PEP7 (ASLDSDPWVRRLLQAEAPRLRRDYSARWNEIRRVYDYNCHVDLRRQIRPIFSNR) [TPV17]”, in assay [2], the “induction of CTL epitope specific IgG antibody production” value was “multiple CTL epitope specific IgG antibodies production was not induced”.
